Reference: patent publication US20150283120A1, “ANTIBIOTIC METHODS AND COMPOSITIONS FOR BACTERIA INFECTIONS” (THE UNIVERSITY OF CHICAGO, priority 2012, published 2015)
Entries after “also recorded” stand apart in the source; their conditions may differ. Structures can show the parent of a compound that is named as a salt. Where two headings read alike, the source gives them in different places.

Legend:
VRS1 = test: microbe, parasite or virus in culture; type: cell-based, Staphylococcus aureus; settings: for MIC: Staphylococcus aureus; for Synergy category: with vancomycin
Source text: (§1) As shown in the analysis of the checkerboard assays (Table 6), gossypol fully potentiated vancomycin (FIC i<0.5) in hVISA, VISA, VRS2 and VRS1. […] Clomiphene partially potentiated vancomycin in hVISA, VISA, and VRS1 and it fully potentiated in strain VRS2.

VRS2 = test: microbe, parasite or virus in culture; type: cell-based, Staphylococcus aureus; settings: Staphylococcus aureus
Source text: as §1

hVISA 2275 = test: microbe, parasite or virus in culture; type: cell-based, Staphylococcus aureus; settings: for MIC: Staphylococcus aureus
Source text: as §1

VISA 2283 = test: microbe, parasite or virus in culture; type: cell-based, Staphylococcus aureus; set-up: MIC (in combination) Van+: unit not given beside the values; settings: for MIC: Staphylococcus aureus; for Synergy category: with vancomycin
Source text: as §1

[1] = test system: MRSA strain USA300 Pvra-lux; type: cell-based, Staphylococcus aureus; settings: compound 10 μM + oxacillin 2 μg/mL; for RG avg (relative growth): ratio of OD600 to oxacillin alone, four runs
Method: (§2) In the secondary screen each microtiter plate contained either cells in TSB alone (16 replicates), cells with oxacillin (2 μg/mL, 31 replicates), or cells with test compound and oxacillin (2 μg/mL, 49 wells). Each compound was assayed in four separate biological replicates.
(§3) All compounds classified in the primary screen as synergists that were vraSR-stimulating or -repressing (as shown in Table 8) were screened in a secondary assay for their effects on both growth and Pvra::lux induction by oxacillin. […] Each compound was tested four separate times at 10 μM in the presence of oxacillin (2 μg/mL) and luminescence was measured every 15 minutes. Relative growth (RG) and relative luminescence (RL) was calculated as the ratio between the OD600 or max LU value in the presence of compound and oxacillin over the average from pooled control values obtained from the same plate. […] Compounds that produced an average RG (ratio of the OD600 of the culture grown with test compound combined with oxacillin to that of oxacillin alone) of <0.8 were classified as oxacillin synergists or potentiators. The relative luminescence (RL) was the ratio of the LU produced in the presence of the test compound combined with oxacillin to that produced by oxacillin alone. Compounds were classified as “vraSR repressors” (mean RL of <0.8), “vraSR stimulators”, (mean RL>1.2), and “vraSR neutral” (mean RL between 0.80-1.2). […] In contrast, 34 compounds had no effect on growth in the presence of oxacillin (“un” in the OD600 category). Among the oxacillin potentiators, there were 2 vraSR stimulators, 3 vraSR neutral compounds and 10 vraSR repressors.

[2] = test system: vraSR transcription (Pvra::lux); type: cell-based, Staphylococcus aureus; settings: compound 10 μM + oxacillin 2 μg/mL; for RL avg (relative luminescence): ratio of LU to oxacillin alone, four runs
Method: as §2, §3

vraR transcription = test: Tertiary screen: qRT-PCR of vraR in strain 923; type: cell-based, Staphylococcus aureus; settings: for classification of lux screen result against qRT-PCR (true/false repressor or stimulator): in the presence of oxacillin; for Effect on vraSR Transcription: With oxacillin / Effect on vraSR Transcription: Compound alone: qRT-PCR of vraR; for Effect on vraSR Transcription: With oxacillin: compound 10 μM + oxacillin 2 μg/mL; for Effect on vraSR Transcription: Compound alone: compound 10 μM, no oxacillin
[3] = test system: MRSA strain USA300-isolate 923; test: Checkerboard MIC testing of compounds with oxacillin; type: cell-based, Staphylococcus aureus; settings: for change of the MIC of oxacillin with compound concentration: strain 923, checkerboard
diverse MRSA strains = test: MIC of oxacillin with a single concentration of compound in multiple MRSA strains; type: cell-based, Staphylococcus aureus
Method: Testing potentiation of oxacillin by compounds in multiple MRSA strains: In order to be considered a synergistic agent in therapy of MRSA infection, it must be effective as a potentiator in diverse MRSA strains. To determine whether the oxacillin potentiators were effective against MRSA strains besides USA300, a single effective concentration of three compounds that were not known as antibiotics—gossypol, pyrvinium and clomiphene—were tested against multiple MRSA genetic backgrounds. Each compound was tested at a single optimal concentration, determined in the checkerboard assays, in combination with various concentrations of oxacillin. The strains included in this panel were from diverse genetic backgrounds as determined by multilocus sequence type (MLST) and contained a variety of SCCmec types. […] The MIC80 was […] for clomiphene, gossypol, and pyrvinium, respectively.

MRSA strain 8004-01 = test: Checkerboard oxacillin + compound, strain 8004-01; set-up: MIC OX / MIC OX (+) / MIC cmpd alone: unit not given beside the values; settings: strain 8004-1 (ST239)

## CN[C@H](CC(C)C)C(=O)N[C@H]1C(=O)N[C@@H](CC(N)=O)C(=O)N[C@H]2C(=O)N[C@H]3C(=O)N[C@H](C(=O)N[C@H](C(=O)O)c4cc(O)cc(O)c4-c4cc3ccc4O)[C@H](O)c3ccc(c(Cl)c3)Oc3cc2cc(c3O[C@@H]2O[C@H](CO)[C@@H](O)[C@H](O)[C@H]2O[C@H]2C[C@](C)(N)[C@H](O)[C@H](C)O2)Oc2ccc(cc2Cl)[C@H]1O [vancomycin]
VRS1; read-out: MIC Van
  MIC: 1020 µg/mL
VRS2; read-out: MIC Van
  MIC: 16 µg/mL
hVISA 2275; read-out: MIC Van
  MIC: 4 µg/mL
VISA 2283; VISA, read-out: MIC Van, VISA 2283, vancomycin alone
  MIC: 16 µg/mL
VISA 2283; VISA 2283, vancomycin alone
  MIC Van: 8 µg/mL
VISA 2283; VISA 2283, vancomycin alone, listed as Van
  MIC Van: 8 µg/mL

## CC1=CC(=O)c2ccccc2C1=O [Menadione, 2-Methylnaphthalene-1,4-dione]
[1]
  OD600 category: inhibited (of <0.8 were classified as oxacillin synergists or potentiators)
  RG avg (relative growth): 0.69
[2]
  Effect on vraSR transcription: repress (“vraSR repressors” (mean RL of <0.8))
  RL avg (relative luminescence): 0.47
vraR transcription
  classification of lux screen result against qRT-PCR (true/false repressor or stimulator): true vraSR expression repressors
  Effect on vraSR Transcription: With oxacillin: vraR inhibitors; also recorded: repress
[3]; strain 923, Men 10.8 μM
  oxacillin MIC: 16 µg/mL
[3]; strain 923, Men 12.3 μM
  oxacillin MIC: 16 µg/mL
[3]; strain 923, Men 14.1 μM
  oxacillin MIC: 16 µg/mL
[3]; strain 923, Men 16.1 μM
  oxacillin MIC: 2 µg/mL
[3]; strain 923, Men 18.4 μM
  oxacillin MIC: 2 µg/mL
[3]; strain 923, Men 21 μM
  oxacillin MIC: 2 µg/mL
[3]; strain 923, Men 24 μM
  oxacillin MIC: 2 µg/mL
[3]; strain 923, in at least one combination (well)
  FICi (FIC index) with oxacillin: > 0.5
[3]; strain 923, menadione at 16 μM
  MIC of oxacillin: 2 µg/mL

## CCN(CC)CCOc1ccc(/C(=C(/Cl)c2ccccc2)c2ccccc2)cc1 [Clomiphene citrate (Z,E), 2-(4-(2-chloro-1,2-diphenylethenyl)phenoxy)-N,N-diethyl-ethanamine]
vraR transcription
  classification of lux screen result against qRT-PCR (true/false repressor or stimulator): true vraSR expression repressors
vraR transcription; listed as clomifene
  Effect on vraSR Transcription: With oxacillin: vraR inhibitors; also recorded: repress
[3]; strain 923, 24 h, compound 0.25 μM
  oxacillin MIC: 32 µg/mL
[3]; strain 923, 24 h, compound 0.5 μM
  oxacillin MIC: 16 µg/mL
[3]; strain 923, 24 h, compound 1 μM
  oxacillin MIC: 32 µg/mL
[3]; strain 923, 24 h, compound 2 μM
  oxacillin MIC: 32 µg/mL
[3]; strain 923, 24 h, compound 4 μM
  oxacillin MIC: 8 µg/mL
[3]; strain 923, 24 h, compound 8 μM
  oxacillin MIC: 8 µg/mL
[3]; strain 923, 24 h, compound 16 μM
  oxacillin MIC: 2 µg/mL
[3]
  change of the MIC of oxacillin with compound concentration: dose dependent decrease
[3]; strain 923, wells with FICi≦0.5 spotted on TSA
  bactericidal effect of oxacillin (MBC, >99.9% killing): increased the bactericidal effect of oxacillin
Diverse MRSA strains; panel of 11 MRSA isolates, clom 3.8 μM, gos 15 μM, pyr 0.5 μM
  MIC 80 of Ox in presence of compound: 2 µg/mL
Diverse MRSA strains; panel of strains
  MIC50 of oxacillin in the presence of compound: 0.5 µg/mL
  MIC80 of oxacillin in the presence of compound: 0.002 µg/mL
Diverse MRSA strains; panel of strains, with compound against oxacillin alone
  fold decrease in the oxacillin MIC50: 32 fold
VRS1; VRS1, compound alone, read-out: MIC compound
  MIC: 12 µg/mL
VRS1; VRS1
  FICi V + compound: 0.75
  Synergy category: partially potentiated (partially potentiated vancomycin (FIC i>0.5 and <1.0))
VRS1; VRS1, listed as Clo
  Synergy category: partial (partially potentiated vancomycin (FIC i>0.5 and <1.0))
VRS2; VRS2, compound alone, read-out: MIC compound
  MIC: 12 µg/mL
hVISA 2275; hVISA 2275, compound alone, read-out: MIC compound
  MIC: 12 µg/mL
hVISA 2275; hVISA 2275, with vancomycin, listed as Clo
  Synergy category: partial (partially potentiated vancomycin (FIC i>0.5 and <1.0))
VISA 2283; VISA 2283, compound alone, read-out: MIC compound
  MIC: 12 µg/mL
VISA 2283; VISA 2283
  FICi V + compound: 0.75
  Van FIC: 0.5
  compound FIC: 0.25
  fold decrease Van MIC: 2 fold
  Synergy category: partially potentiated (partially potentiated vancomycin (FIC i>0.5 and <1.0))
VISA 2283; VISA 2283, compound MIC with the indicated Van concentration
  MIC (in combination) compound+: 3
VISA 2283; VISA 2283, vancomycin MIC in combination with compound
  MIC (in combination) Van+: 4
VISA 2283; VISA 2283, listed as Clo
  Synergy category: partial (partially potentiated vancomycin (FIC i>0.5 and <1.0))
MRSA strain 8004-01
  FIC Compound: 0.5
  FIC Ox: .03
  MIC cmpd alone: 10.4
MRSA strain 8004-01; compound in combination with oxacillin
  MIC cmpd +: 5.2 µg/mL
MRSA strain 8004-01; oxacillin + compound
  FICi: 0.53
MRSA strain 8004-01; oxacillin in combination with compound
  MIC OX (+): 16

## CCn1cc(C(=O)O)c(=O)c2cc(F)c(N3CCNCC3)cc21 [Norfloxacin, 1-ethyl-6-fluoro-4-oxo-7-piperazin-1-yl-1H-quinoline-3-carboxylic acid]
[1]
  OD600 category: inhibited (of <0.8 were classified as oxacillin synergists or potentiators)
  RG avg (relative growth): 0.40
[2]
  Effect on vraSR transcription: repress (“vraSR repressors” (mean RL of <0.8))
  RL avg (relative luminescence): 0.33
vraR transcription
  classification of lux screen result against qRT-PCR (true/false repressor or stimulator): true vraSR expression repressors
  Effect on vraSR Transcription: With oxacillin: repress
[3]
  change of the MIC of oxacillin with compound concentration: dose dependent decrease

## CC(=O)OCC1=C(C(=O)O)N2C(=O)[C@@H](NC(=O)Cc3cccs3)[C@H]2SC1 [Cephalothin sodium salt]
[1]
  OD600 category: inhibited (of <0.8 were classified as oxacillin synergists or potentiators)
  RG avg (relative growth): 0.45
[2]
  Effect on vraSR transcription: neutral (“vraSR neutral” (mean RL between 0.80-1.2))
  RL avg (relative luminescence): 0.36
vraR transcription
  Effect on vraSR Transcription: Compound alone: stimulate

## CCCCc1oc2ccccc2c1C(=O)c1cc(I)c(OCCN(CC)CC)c(I)c1 [Amiodarone hydrochloride]
[1]
  OD600 category: inhibited (of <0.8 were classified as oxacillin synergists or potentiators)
  RG avg (relative growth): 0.84
[2]
  Effect on vraSR transcription: stimulate (“vraSR stimulators”, (mean RL>1.2))
  RL avg (relative luminescence): 0.68
vraR transcription
  Effect on vraSR Transcription: Compound alone: stimulate
